Reference: patent US12503425B2, “Methods of treating or controlling cytotoxic cerebral edema” (Aeromics, Inc., priority 2012, dated 2025)

Tests used:
AQP = AQP inhibition cell-based assay (Table 1)
cerebral edema [1] = test: Mouse water toxicity model, brain water content; type: in vivo; settings: at 30 minutes
Method: Mouse Water Toxicity Model-Brain Water Content: Compounds are also tested for the ability to reduce CE in mice exposed to the water shock by examining brain water content. Mice are treated with a water bolus as described above, then sacrificed at 30 minutes. Brain water content is assessed by fresh/dry weight ratio, i.e. the brains are weighed immediately then desiccated in an oven at 100° C. for 24 h and dry weights measured (brain water percentage=[…]).

cerebral edema [2] = test: Mouse water toxicity model, brain volume by MRI; settings: 0.76 mg/kg, versus no drug
Method: The first time point at 5.67 min coincides with the scan slice at the middle of the brain during the first post-injection scan. Other time points are placed in a similar manner. The data is fitted to a single exponential equation: V/V0=Vi+dVmax(1−e^(−kt)); • where V/V0=relative brain volume, Vi=initial relative brain volume, dVmax=maximum change in relative brain volume, k=first order rate constant (min^−1), and t=time in minutes.
Mouse Water Toxicity Model-Brain Volume by Magnetic Resonance Imaging (MRI): MRI is used to measure changes in brain volume in response to water shock, using the water toxicity model. As described for the survival and brain water content studies above, mice are injected, IP, with a water bolus alone or water bolus and test compound at 0.76 mg/kg, and changes in brain volume as detected by MRI are monitored. […] This imaging method is found to provide sufficient contrast and resolution to sensitively detect changes in total brain volume in the mouse water toxicity model for cerebral edema. […] The cross sectional area of the brain in each imaging slice is measured by manual region-of-interest selection using ImageJ. Brain volumes are then calculated for each scan by summing the individual cross sectional brain areas and multiplying by the slice thickness (0.7 mm).

[3] = Bioconversion of Compound 5 to Compound 1 in mouse plasma in vitro; type: in vitro ADME; settings: 20° C.
[4] = tested on: middle cerebral artery occlusion (MCAo); test: Mouse MCAo stroke model, neurological outcome (5 point scale); type: in vivo; settings: 5 mg/kg i.p. every three hours
Description: An improvement in neurological outcome is observed for animals given Compound 5. Control animals have an average neurological score of 2.77±0.66, while animals given Compound 5 have an average score of 0.88±0.31 (FIG. 13, inset, P=0.025, n=9 per treatment).

Compound: O=C(Nc1ccccc1)c1ccccc1 [Phenylbenzamide]
- AQP inhibition Cell-Based Assay (%) (AQP): 4.5%

Compound: O=C(Nc1cc(C(F)(F)F)cc(C(F)(F)F)c1)c1cc(Cl)ccc1O [Compound 1]
- reduction in CE (brain water content) (cerebral edema [1]; 0.76 mg/kg): 11.2%
- reduction in CE (brain water content) (cerebral edema [1]; 7.6 mg/kg): 15.9%
- detection in plasma samples from mice injected IP with Compound 5: undetectable
- reduction of the rate of CE development (cerebral edema [2]): 2.5 fold

Compound: O=C(Nc1cc(C(F)(F)F)cc(C(F)(F)F)c1)c1cc(Cl)ccc1OP(=O)(O)O [Compound 5]
- time sufficient to render Compound 5 undetectable [3]: Less than 5 minutes
- progression of neurological state (in words) [4]: did not progress into a state of severe paralysis or death
